The target of one experiment is RIPK1 (Homo sapiens (Human), UniProt Q13546). The experiment can be described thus: ADP-Glo kinase assay, RIPK1 activity. In kind it is biochemical. As to conditions: 5 nM RIPK1, 50 μM ATP, 6 hr reaction. Here is the method: In order to measure RIPK1 activity the ADP-Glo kinase assay (Promega, Catalog #V7002) was used to measure the conversion of ATP to ADP. This enzymatic assay was performed in a 384-well white, Optiplate (Perkin Elmer, Catalog #6007299) with assay buffer consisting of 50 mM HEPES pH 7.5 (Gibco, Catalog #15630-080), 50 mM NaCl (Teknova, Catalog #S0252), 30 mM MgCl2 (Ambion, Catalog #AM9530G), 1 mM DTT (Santa Cruz Biotechnology, Catalog #sc-29089), 0.05% BSA (Sigma, Catalog #A3059-50G) and 0.02% CHAPS (Sigma, Catalog #C5070-5G). Stock solutions of the test compounds were prepared in 100% DMSO (Sigma, Catalog #D2650) and serially diluted 1:3 using 100% DMSO. Compounds were additionally diluted 1:40 in assay buffer, and 2 μL/well were transferred to the assay plate. 4 μL/well (final concentration of 5 nM) of RIPK1 protein (SignalChem, Catalog #R07-11G-05) diluted in assay buffer and added to the assay plate followed by a 10 minute preincutation at room temperature. 4 μL/well of ATP (Promega, Catalog #V7002) (final concentration of 50 μM) diluted in assay buffer were then added to the assay plate followed by a 6 hr reaction time. Final concentrations of RIPK1 and ATP refer to a 10 μL volume. Luminescence was measured using a BioTek Synergy™ NEO plate reader. IC50 values were calculated using a four-parameter logistic curve fit using Genedata Screener software.
RIPK1, sequence (Q13546 1-327): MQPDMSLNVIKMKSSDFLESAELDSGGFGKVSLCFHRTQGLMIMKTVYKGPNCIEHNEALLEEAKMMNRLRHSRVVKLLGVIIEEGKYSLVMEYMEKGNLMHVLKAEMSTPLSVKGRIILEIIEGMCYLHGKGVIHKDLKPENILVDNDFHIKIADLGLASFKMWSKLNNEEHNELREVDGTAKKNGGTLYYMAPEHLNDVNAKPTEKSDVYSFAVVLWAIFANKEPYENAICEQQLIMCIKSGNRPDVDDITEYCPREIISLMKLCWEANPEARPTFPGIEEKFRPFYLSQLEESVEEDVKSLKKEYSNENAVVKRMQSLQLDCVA
In general terms: ADP-Glo first removes unused ATP, then detects ADP through luciferase.

The next experiment relates to U937 cells. Put plainly: Human U937 cellular necroptosis assay. In kind it is cell-based. As to conditions: U-937; U937 cells stimulated with 25 ng/mL human TNFalpha and 25 μM z-VAD-FMK; 22 hr; Cell Titer-Glo viability. (In general: ATP-based viability assays read luminescence as a measure of living cells.)

The IC50 is the midpoint of a concentration-inhibition curve.

Regarding `Cc1nc(C(=O)Nc2ccc(OC(F)(F)F)cc2)nn1Cc1ccccc1` [Example 52, 1-benzyl-5-methyl-N-(4-(trifluoromethoxy)-phenyl)-1H-1,2,4-triazole-3-carboxamide], the IC50 at RIPK1 is 4620 nM; in the experiment on U937 cells, more than 10000 nM.
In the case of `O=C1c2nn(Cc3cncc(F)c3)c(Cl)c2CCN1c1cccc(Cl)c1F` [Example 54, 3-Chloro-6-(3-chloro-2-fluorophenyl)-2-((5-fluoropyridin-3-yl)methyl)-5,6-dihydro-2H-pyrazolo[3,4-c]pyridin-7(4H)-one], the IC50 on RIPK1 was 131 nM; with U937 cells it was 128 nM.
Turning to `COc1c2c(nn1Cc1cc(F)ccc1F)C(=O)N(c1cccc(Cl)c1F)CC2` [Example 57, 6-(3-Chloro-2-fluorophenyl)-2-(2,5-difluorobenzyl)-3-methoxy-5,6-dihydro-2H-pyrazolo[3,4-c]pyridin-7(4H)-one], the results for the 50% inhibitory concentration (IC50) at RIPK1 and in the experiment on U937 cells were 22 nM and 115 nM, respectively.
`NC(=O)c1cccc(Cn2nc3c(c2Cl)CCN(c2cccc(Cl)c2F)C3=O)c1` [Example 75, 3-((3-chloro-6-(3-chloro-2-fluorophenyl)-7-oxo-4,5,6,7-tetrahydro-2H-pyrazolo[3,4-c]pyridin-2-yl)methyl)benzamide]: the IC50 came to 297 nM at RIPK1 and 1160 nM in the experiment with U937 cells.
The like results for `Cc1ccc(Cn2cnc(C(=O)Nc3cccc(Cl)c3F)n2)cc1` [Example 86, N-(3-chloro-2-fluorophenyl)-1-(4-methylbenzyl)-1H-1,2,4-triazole-3-carboxamide] were, in that order, 564 nM and 2080 nM.
The like results for `Cc1ccc(Cn2cnc(C(=O)Nc3cccc(Cl)c3F)n2)cc1F` [Example 87, N-(3-chloro-2-fluorophenyl)-1-(3-fluoro-4-methylbenzyl)-1H-1,2,4-triazole-3-carboxamide] were, in that order, 32.2 nM and 4300 nM.
`O=C(Nc1cccc(Cl)c1F)c1ncn(Cc2cccc(F)c2)n1` [Example 88, N-(3-chloro-2-fluorophenyl)-1-(3-fluorobenzyl)-1H-1,2,4-triazole-3-carboxamide]: the half-inhibitory concentration (IC50) on RIPK1 was found to be 36.3 nM; in the experiment on U937 cells, 872 nM.
Turning to `O=C(Nc1cccc(Cl)c1F)c1ncn(Cc2ccc(F)cn2)n1` [Example 89, N-(3-chloro-2-fluorophenyl)-1-((5-fluoropyridin-2-yl)methyl)-1H-1,2,4-triazole-3-carboxamide], the IC50 stood at 1600 nM on RIPK1 and 5580 nM with U937 cells.
On the same counts, the results for `Cc1ccc(Cn2cnc(C(=O)Nc3cccc(Cl)c3F)n2)cn1` [Example 90] are 1460 nM and 2600 nM.
On to `O=C(Nc1cccc2nn[nH]c12)c1ncn(Cc2ccccc2)n1` [Example 100, N-(1H-benzo[d][1,2,3]triazol-7-yl)-1-benzyl-1H-1,2,4-triazole-3-carboxamide], for which the 50% inhibitory concentration (IC50) at RIPK1 was 685 nM; with U937 cells, 4140 nM.
For the compound `O=C1c2nn(Cc3cc(F)ccc3F)c(Br)c2CCN1c1cccc(Cl)c1F` [Example 101, 3-Bromo-6-(3-chloro-2-fluorophenyl)-2-(2,5-difluorobenzyl)-2,4,5,6-tetrahydro-7H-pyrazolo[3,4-c]pyridin-7-one], the half-maximal inhibitory concentration (IC50) at RIPK1 was 17.4 nM; in the experiment on U937 cells, 16.2 nM.
The like results for `O=C(Nc1cccc(Cl)c1F)c1ncn(Cc2ncccc2F)n1` [Example 102, N-(3-chloro-2-fluorophenyl)-1-((3-fluoropyridin-2-yl)methyl)-1H-1,2,4-triazole-3-carboxamide] were, in that order, 195 nM and 1260 nM.
